# Laboratory results published in US7718647B2, “Substituted azepine derivatives as serotonin receptor modulators” (Athersys, Inc., priority 2004, dated 2010).
# Biological target: T1, human 5HT2c receptor (Homo sapiens, UniProt P28335, I156V/I160V, form not given)
# T1 sequence (P28335 1-458 I156V/N158S/I160V): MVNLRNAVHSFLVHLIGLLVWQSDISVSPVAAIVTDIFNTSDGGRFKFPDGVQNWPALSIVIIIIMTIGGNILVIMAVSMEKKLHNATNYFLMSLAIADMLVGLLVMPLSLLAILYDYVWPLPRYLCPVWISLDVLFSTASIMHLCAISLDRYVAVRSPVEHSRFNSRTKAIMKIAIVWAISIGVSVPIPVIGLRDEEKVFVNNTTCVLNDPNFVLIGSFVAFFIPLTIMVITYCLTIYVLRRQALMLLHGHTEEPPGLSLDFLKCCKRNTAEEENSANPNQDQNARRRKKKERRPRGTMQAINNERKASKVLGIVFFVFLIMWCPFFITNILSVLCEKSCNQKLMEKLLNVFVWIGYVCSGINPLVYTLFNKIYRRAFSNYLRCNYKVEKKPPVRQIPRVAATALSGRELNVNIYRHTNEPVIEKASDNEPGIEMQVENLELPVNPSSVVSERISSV
# Assay: Calcium mobilization (FLIPR) 5HT2c receptor agonist assay in HEK 293 EBNA cells
# Format: cell-based
# Settings: agonist-stimulated calcium release, HEK 293 EBNA cells expressing human 5HT2c receptor, read-out: 5-HT2c EC50 (hVSV)
row,EC50,Compound
1,< 100 nM,"CC1CNCCc2sc(Br)c(Br)c21 (single isomer, unassigned) [32, Enantiomer 2]"
2,< 10000 nM,"CC1CNCCc2sc(Br)c(Br)c21 (single isomer, unassigned) [32, Enantiomer 1]"
3,< 10 nM,"Clc1sc2c(c1Cl)CCNCC2 [Example 4, 2,3-Dichloro-5,6,7,8-tetrahydro-4H-thieno[2,3-d]azepine]"
4,< 10000 nM,"Clc1csc2c1CCNCC2 [Example 48, 3-Chloro-5,6,7,8-tetrahydro-4H-thieno[2,3-d]azepine]"
5,> 10000 nM,"Clc1ccc(Cl)c(-c2cc3c(s2)CCNCC3)c1 [Example 10, 2-(2,5-Dichloro-phenyl)-5,6,7,8-tetrahydro-4H-thieno[2,3-d]azepine]"
6,< 10 nM,"COc1c(Br)sc2c1CCNCC2 [Example 18, 2-Bromo-3-methoxy-5,6,7,8-tetrahydro-4H-thieno[2,3-d]azepine]"
7,< 10000 nM,"Fc1ccc(-c2cc3c(s2)CCNCC3)cc1 [Example 8, 2-(4-Fluoro-phenyl)-5,6,7,8-tetrahydro-4H-thieno[2,3-d]azepine]"
8,< 1000 nM,"COc1c(Cl)sc2c1CCNCC2 [Example 19, 2-Chloro-3-methoxy-5,6,7,8-tetrahydro-4H-thieno[2,3-d]azepine]"
9,< 10 nM,"FC(F)(F)c1cc2c(s1)CCNCC2 [Example 40, 2-Trifluoromethyl-5,6,7,8-tetrahydro-4H-thieno[2,3-d]azepine]"
10,< 10000 nM,"c1ccc(-c2cc3c(s2)CCNCC3)cc1 [Example 13, 2-Phenyl-5,6,7,8-tetrahydro-4H-thieno[2,3-d]azepine]"
11,< 10 nM,"COc1c(C(C)(C)C)sc2c1CCNCC2 [Example 44, 2-tert-Butyl-3-methoxy-5,6,7,8-tetrahydro-4H-thieno[2,3-d]azepine]"
12,< 10 nM,"C=C(C)c1sc2c(c1OC)CCNCC2 [Example 20, 2-Isopropenyl-3-methoxy-5,6,7,8-tetrahydro-4H-thieno[2,3-d]azepine]"
13,< 10 nM,"COc1c(C)sc2c1CCNCC2 [Example 17, 3-Methoxy-2-methyl-5,6,7,8-tetrahydro-4H-thieno[2,3-d]azepine]"
14,< 10 nM,"Cc1c(Br)sc2c1CCNCC2 [Example 16, 2-Bromo-3-methyl-5,6,7,8-tetrahydro-4H-thieno[2,3-d]azepine]"
15,< 10000 nM,"CC(C)(C)CC(C)(C)c1sc2c(c1Cl)CCNCC2 [Example 47, 3-Chloro-2-(1,1,3,3-tetramethyl-butyl)-5,6,7,8-tetrahydro-4H-thieno[2,3-d]azepine]"
16,< 10 nM,"COc1c(C(C)C)sc2c1CCNCC2 [Example 22, 2-Isopropyl-3-methoxy-5,6,7,8-tetrahydro-4H-thieno[2,3-d]azepine]"
17,< 10 nM,"CN(C)S(=O)(=O)c1cc2c(s1)CCNCC2 [Example 27, 5,6,7,8-Tetrahydro-4H-thieno[2,3-d]azepine-2-sulfonic acid dimethylamide]"
18,< 10 nM,"O=S(=O)(c1cc2c(s1)CCNCC2)N1CCCC1 [Example 26, 2-(Pyrrolidine-1-sulfonyl)-5,6,7,8-tetrahydro-4H-thieno[2,3-d]azepine]"
19,< 100 nM,"FC(F)(F)c1sc2c(c1Cl)CCNCC2 [Example 41, 3-Chloro-2-trifluoromethyl-5,6,7,8-tetrahydro-4H-thieno[2,3-d]azepine]"
20,< 100 nM,"Clc1cc2c(s1)CCNCC2 [Example 2, 2-Chloro-5,6,7,8-tetrahydro-4H-thieno[2,3-d]azepine]"
21,< 10000 nM,"Fc1cccc(Cl)c1Cc1sc2c(c1Br)CCNCC2 [Example 15, 3-Bromo-2-(2-chloro-6-fluoro-benzyl)-5,6,7,8-tetrahydro-4H-thieno [2,3-d]azepine]"
22,< 1000 nM,"Fc1cccc(Cl)c1Cc1cc2c(s1)CCNCC2 [Example 14, 2-(2-Chloro-6-fluoro-benzyl)-5,6,7,8-tetrahydro-4H-thieno[2,3-d]azepine]"

row,EC50,Compound
1,> 10000 nM,"Fc1ccc(-c2cc3c(s2)CCNCC3)cc1Cl [Example 9, 2-(3-Chloro-4-fluoro-phenyl)-5,6,7,8-tetrahydro-4H-thieno[2,3-d]azepine]"
2,> 10000 nM,"CCc1ccc(-c2cc3c(s2)CCNCC3)cc1 [Example 11, 2-(4-Ethyl-phenyl)-5,6,7,8-tetrahydro-4H-thieno[2,3-d]azepine]"
3,> 10000 nM,"Cc1c(Br)sc2c1C(C)CNCC2 (single isomer, unassigned) [36, Enantiomer 1]"
4,< 100 nM,"CC(C)(C)c1sc2c(c1Cl)CCNCC2 [Example 46, 2-tert-Butyl-3-chloro-5,6,7,8-tetrahydro-4H-thieno[2,3-d]azepine]"
5,< 1000 nM,"COC1CNCCc2sc(Br)cc21 (racemic) [Example 33, (R,S)-2-Bromo-4-methoxy-5,6,7,8-tetrahydro-4H-thieno[2,3-d]azepine]"
6,> 10000 nM,"FC(F)(F)Oc1ccc(-c2cc3c(s2)CCNCC3)cc1 [Example 6, 2-(4-Trifluoromethoxy-phenyl)-5,6,7,8-tetrahydro-4H-thieno[2,3-d]azepine]"
7,< 1000 nM,"Cc1c(Br)sc2c1C(C)CNCC2 (single isomer, unassigned) [36, Enantiomer 2]"
8,< 100 nM,"CC(C)(C)c1cc2c(s1)CCNCC2 [Example 45, 2-tert-Butyl-5,6,7,8-tetrahydro-4H-thieno[2,3-d]azepine]"
9,< 10000 nM,"COc1cccc(-c2cc3c(s2)CCNCC3)c1 [Example 12, 2-(3-Methoxy-phenyl)-5,6,7,8-tetrahydro-4H-thieno[2,3-d]azepine]"
10,< 100 nM,"Cc1c(C(C)(C)C)sc2c1CCNCC2 [Example 21, 2-tert-Butyl-3-methyl-5,6,7,8-tetrahydro-4H-thieno[2,3-d]azepine]"
11,< 10 nM,"Clc1c(Br)sc2c1CCNCC2 [Example 5, 2-Bromo-3-chloro-5,6,7,8-tetrahydro-4H-thieno[2,3-d]azepine]"
12,< 10 nM,"Brc1sc2c(c1Br)CCNCC2 [Example 3, 2,3-Dibromo-5,6,7,8-tetrahydro-4H-thieno[2,3-d]azepine]"
13,< 1000 nM,"CN(C)C(=O)c1cc2c(s1)CCNCC2 [Example 30, 5,6,7,8-Tetrahydro-4H-thieno[2,3-d]azepine-2-carboxylic acid dimethylamide]"
14,< 10000 nM,"CC1(C)CNCCc2cc(Br)sc21 [Example 34, 2-Bromo-8,8-dimethyl-5,6,7,8-tetrahydro-4H-thieno[2,3-d]azepine]"
15,< 10 nM,"Brc1cc2c(s1)CCNCC2 [Example 1, 2-Bromo-5,6,7,8-tetrahydro-4H-thieno[2,3-d]azepine]"
16,< 1000 nM,"Cc1csc2c1CCNCC2 [Example 43, 3-Methyl-5,6,7,8-tetrahydro-4H-thieno[2,3-d]azepine]"
17,< 10 nM,"Cc1c(S(=O)(=O)N(C)C)sc2c1CCNCC2 [Example 28, 3-Methyl-5,6,7,8-tetrahydro-4H-thieno[2,3-d]azepine-2-sulfonic acid dimethylamide]"
18,< 100 nM,"CCC1CNCCc2sc(Br)cc21 (racemic) [Example 35, (R,S)-2-Bromo-4-ethyl-5,6,7,8-tetrahydro-4H-thieno[2,3-d]azepine]"
19,< 10000 nM,"O=C(NC1CCCC1)c1cc2c(s1)CCNCC2 [Example 29, 5,6,7,8-Tetrahydro-4H-thieno[2,3-d]azepine-2-carboxylic acid cyclopentylamide]"
20,< 10 nM,"FC(F)(F)c1sc2c(c1Br)CCNCC2 [Example 42, 3-Bromo-2-trifluoromethyl-5,6,7,8-tetrahydro-4H-thieno[2,3-d]azepine]"
21,< 1000 nM,"Brc1cc2c(o1)CCNCC2 [Example 49, 2-Bromo-5,6,7,8-tetrahydro-4H-furo[2,3-d]azepine]"
22,> 10000 nM,"FC(F)(F)c1ccccc1-c1cc2c(s1)CCNCC2 [Example 7, 2-(2-Trifluoromethyl-phenyl)-5,6,7,8-tetrahydro-4H-thieno[2,3-d]azepine]"

row,Compound,EC50
1,"Brc1sc2c3c1CCC3CNCC2 (single isomer, unassigned) [37, Enantiomer 1]",< 1000 nM
2,"CC(C)(C)c1sc2c3c1CCC3CNCC2 (single isomer, unassigned) [39, Enantiomer 2]",< 10 nM
3,"CC(C)(C)c1sc2c3c1CCC3CNCC2 (single isomer, unassigned) [39, Enantiomer 1]",< 100 nM
4,"Brc1sc2c3c1CCC3CNCC2 (single isomer, unassigned) [37, Enantiomer 2]",< 100 nM
5,"Cc1sc2c3c1CCC3CNCC2 (racemic) [Example 38, (R,S)-2-Methyl-4,4a,5,6,7,8-hexahydro-3H-1-thia-6-aza-cyclopenta[cd]azulene]",< 1000 nM
6,"CC1CNCCc2cc(Cl)sc21 (racemic) [Example 31, (R,S)-2-Chloro-8-methyl-5,6,7,8-tetrahydro-4H-thieno[2,3-d]azepine]",< 100 nM
7,"Brc1cc2c(s1)C1(CC1)CNCC2 [Example 25, 2-Bromo-8-spirocyclopropyl-5,6,7,8-tetrahydro-4H-thieno[2,3-d]azepine]",< 1000 nM
